According to patent US20060204596A1, “Formulation of a mixture of Free-B-Ring flavonoids and flavans as a therapeutic agent” (Unigen Pharmaceuticals, Inc., priority 2005, published 2006):
Read-outs that look alike come from different tables or passages of the source. Marks after values point to notes of the source that are not given here.

Experiments:
COX-2 = target: T1, COX-2 (Homo sapiens, UniProt P35354); assay: COX-2 enzymatic inhibition; format: biochemical
T1 sequence (P35354 18-604): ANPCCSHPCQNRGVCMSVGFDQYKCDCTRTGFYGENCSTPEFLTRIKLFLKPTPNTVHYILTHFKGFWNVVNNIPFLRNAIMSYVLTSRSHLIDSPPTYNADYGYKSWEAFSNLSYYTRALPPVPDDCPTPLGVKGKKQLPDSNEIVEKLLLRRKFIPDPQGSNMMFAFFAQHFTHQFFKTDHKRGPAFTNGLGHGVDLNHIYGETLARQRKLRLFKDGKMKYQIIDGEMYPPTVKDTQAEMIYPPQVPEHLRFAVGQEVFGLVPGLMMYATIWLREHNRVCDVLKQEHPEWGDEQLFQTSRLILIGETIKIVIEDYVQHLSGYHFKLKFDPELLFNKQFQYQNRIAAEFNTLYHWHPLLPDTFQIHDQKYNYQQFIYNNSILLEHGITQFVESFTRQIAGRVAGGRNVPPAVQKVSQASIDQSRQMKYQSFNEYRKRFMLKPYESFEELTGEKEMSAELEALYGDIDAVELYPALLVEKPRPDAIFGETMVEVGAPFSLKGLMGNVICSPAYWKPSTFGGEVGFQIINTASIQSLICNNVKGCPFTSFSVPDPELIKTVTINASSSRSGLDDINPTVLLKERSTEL
Description: (§1) UP736 is a natural product derived from two traditional plants that contain antioxidants and other naturally occurring dietary compounds that aid the body in multiple ways.

[1] = tested on: arachidonic acid induced platelet aggregation; assay: platelet aggregation assay in platelet rich plasma; format: cell-based, New Zealand Rabbits; conditions: UP736 0
Experimental: UP736, aspirin or combinations thereof were dissolved in 0.3% DMSO and incubated with the plasma at 37° C. for 5 minutes. Agonist or antagonist effect of the compounds was quantified by optical density of aggregation. Significance criteria used for agonist effect is that >50% platelet aggregation relative to arachidonic acid response. […] In this assay, various concentrations of UP736 (10, 2 and 0.2 μM) and aspirin (30 and 3 μM) were tested individually as either agonist or antagonist of platelet aggregation in platelet rich rabbit plasma. […] In another assay (Test# 2) performed under the same experimental conditions, mixtures of UP736 at lower concentrations (0.2, 0.067, 0.022 and 0.007 μM) and aspirin at a concentration of 3 μM were tested.

bleeding time [2] = assay: bleeding time assay (Test #3, #4); format: in vivo, ICR male mice
Experimental: The bleeding time assay was conducted according to the method described by […] and Kling (1997) Thrombosis Research 10:619-622) and Butler et al. (1982) Thromb Haemostas 47:46-49. Test articles were administered to five ICR male mice one hour before standardized transection of the tip (1.0 mm) of each tail. The mice restrained in holders were immediately suspended vertically with the tail tips immersed in a test tube containing saline at 37° C. There was no maximum cut-off time set. The measurements started as actual bleeding was observed and stopped as bleeding ceased for 15 seconds or longer at any time. Data were analyzed using the Student's t-test. In one assay (Test #3), aspirin alone at 3, 10, 65 and 100 mg/kg or UP736 at a dose of 100 mg/kg, alone or in combination with aspirin at 3, 10 and 65 mg/kg was administered orally to groups of 5 ICR male mice. […] The assay was repeated under the same experimental conditions (Test # 4).

bleeding time [3] = tested on: bleeding time; parameters: species or system ICR derived male mice; conditions: male, ICR, mouse, in vivo, po, 1 h
Experimental: To verify the bleeding time results, UP736 or UP736 in combination with aspirin was tested again in an independent study (Test #5) using a modified procedure carried out. UP736 was administered orally at a dose of 100 mg/kg, alone or in combination with aspirin at 3, 10 and 30 mg/kg to groups of 5 ICR derived male mice, weighing 22±2 g, 1 hour before transection of the tip (0.3 mm) of each tail. In addition, aspirin alone at 3, 10, 30 and 100 mg/kg was similarly given to mice. The mice, in holders, were immediately suspended vertically with the distal 2 cm of each tail immersed in a test tube containing saline at 37° C. A maximum cut-off time of 180 seconds was set. If bleeding ceased for 15 seconds or longer at any time during the 180 seconds observation period, the measurements were discontinued and any subsequent bleeding would not be considered. Prolongation of bleeding time by 50 percent or more (50%) relative to a control group of animals was considered significant. The results are consistent with those obtained from the above-described experiments (Test #3 and # 4).

COX-1 [4] = target: T2, COX-1 (Homo sapiens, UniProt P23219); conditions: cited from earlier work
T2 sequence (P23219 24-599): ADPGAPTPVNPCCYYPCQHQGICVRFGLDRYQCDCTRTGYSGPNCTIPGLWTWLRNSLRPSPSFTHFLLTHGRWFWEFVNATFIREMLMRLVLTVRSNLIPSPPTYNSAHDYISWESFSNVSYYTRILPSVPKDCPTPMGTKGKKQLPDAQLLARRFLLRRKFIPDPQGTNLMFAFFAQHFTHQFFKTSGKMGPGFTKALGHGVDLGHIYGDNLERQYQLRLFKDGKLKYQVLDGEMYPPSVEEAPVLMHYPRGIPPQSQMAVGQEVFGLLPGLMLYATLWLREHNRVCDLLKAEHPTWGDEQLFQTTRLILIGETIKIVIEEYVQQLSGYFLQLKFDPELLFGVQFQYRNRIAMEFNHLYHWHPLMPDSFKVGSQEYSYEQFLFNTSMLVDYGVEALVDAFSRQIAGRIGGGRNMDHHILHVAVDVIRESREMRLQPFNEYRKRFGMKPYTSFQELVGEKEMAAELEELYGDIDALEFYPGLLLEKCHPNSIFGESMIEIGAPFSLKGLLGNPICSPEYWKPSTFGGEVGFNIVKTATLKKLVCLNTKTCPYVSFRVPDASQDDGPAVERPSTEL

COX-1 [5] = target: T2, COX-1; assay: COX-1 enzymatic inhibition; format: biochemical
Description: as §1

[6] = Oxygen Radical Absorption Capacity (ORAC)
Description: […]. However, it can be preserved by a number of preservatives, including but not limited to stannous chloride (SnCl2), sodium bisulfate/metabisulfite (SBS), and other preservatives.

[7] = Test #3 (n = 5), 3 mg/kg orally
[8] = Test #3 (n = 5), 10 mg/kg orally
[9] = Test #3 (n = 5), 65 mg/kg orally
[10] = Test #3 (n = 5), 100 mg/kg orally
[11] = Test #3 and #4 combined (n = 9-10), 3 mg/kg orally
[12] = Test #3 and #4 combined (n = 9-10), 10 mg/kg orally
[13] = Test #3 and #4 combined (n = 9-10), 65 mg/kg orally
[14] = Test #3 and #4 combined (n = 9-10), 100 mg/kg orally
[15] = Test #4 (n = 5), 3 mg/kg orally
[16] = Test #4 (n = 5), 10 mg/kg orally
[17] = Test #4 (n = 5), 65 mg/kg orally
[18] = Test #4 (n = 5), 100 mg/kg orally

## CC(=O)Oc1ccccc1C(=O)O [Aspirin]
COX-2
  COX-2 Selectivity Relative COX-1: 0.006
[1]; Test #1, aspirin 3.0 μM
  Agonist Effect: 0%
  Antagonist Effect: 1%
[1]; Test #1, aspirin 30.0 μM
  Agonist Effect: 0%
  Antagonist Effect: 100%
[1]; Test #2, aspirin 3.0 μM
  Agonist Effect: 0%
  Antagonist Effect: 8%
Bleeding time [2]; [7]
  % Change Relative to Vehicle Group: 18.7 ↑ %
  Average Bleeding Time ± SD: 77.2 ± 13.0 s
Bleeding time [2]; [8]
  % Change Relative to Vehicle Group: 14.5 ↑ %
  Average Bleeding Time ± SD: 74.4 ± 15.4 s
Bleeding time [2]; [9]
  % Change Relative to Vehicle Group: 61.5* ↑ %
  Average Bleeding Time ± SD: 105 ± 15.1 s
Bleeding time [2]; [10]
  % Change Relative to Vehicle Group: 83* ↑ %
  Average Bleeding Time ± SD: 119 ± 14.0 s
Bleeding time [2]; [11]
  % Change Relative to Vehicle Group: 21.7 ↑ %
  Average Bleeding Time ± SD: 83.3 ± 12.6 s
Bleeding time [2]; [12]
  % Change Relative to Vehicle Group: 15.6 ↑ %
  Average Bleeding Time ± SD: 79.5 ± 13.1 s
Bleeding time [2]; [13]
  % Change Relative to Vehicle Group: 46.1 ↑ %
  Average Bleeding Time ± SD: 100.5 ± 11.9 s
Bleeding time [2]; [14]
  % Change Relative to Vehicle Group: 78.2 ↑ %
  Average Bleeding Time ± SD: 122.6 ± 13.9 s
Bleeding time [2]; [15]
  % Change Relative to Vehicle Group: 23.1 ↑ %
  Average Bleeding Time ± SD: 89.4 ± 9.7 s
Bleeding time [2]; [16]
  % Change Relative to Vehicle Group: 16.5 ↑ %
  Average Bleeding Time ± SD: 84.6 ± 9.0 s
Bleeding time [2]; [17]
  % Change Relative to Vehicle Group: 32.2* ↑ %
  Average Bleeding Time ± SD: 96 ± 6.4 s
Bleeding time [2]; [18]
  % Change Relative to Vehicle Group: 73.8* ↑ %
  Average Bleeding Time ± SD: 126.2 ± 14.3 s
Bleeding time [3]; 3 mg/kg
  % Change Relative to Vehicle Group: 0%
  Average Bleeding Time ± SD: 42.8 ± 26.2 s
Bleeding time [3]; 10 mg/kg
  % Change Relative to Vehicle Group: 0%
  Average Bleeding Time ± SD: 39.8 ± 22.4 s
Bleeding time [3]; 30 mg/kg
  % Change Relative to Vehicle Group: 27 ↑ %
  Average Bleeding Time ± SD: 56.4 ± 27.3 s
Bleeding time [3]; 100 mg/kg
  % Change Relative to Vehicle Group: 70* ↑ %
  Average Bleeding Time ± SD: 75.0 ± 38.8 s
COX-1 [4]
  selective against COX-1: more than 150 times

## CC1(C)Cc2c(-c3ccccc3)c(-c3ccc(Cl)cc3)c(CC(=O)O)n2C1 [Licofelone]
COX-2
  COX-2 Selectivity Relative COX-1: 1

## CS(=O)(=O)c1ccc(C2=C(c3ccccc3)C(=O)OC2)cc1 [Rofecoxib]
COX-2
  COX-2 Selectivity Relative COX-1: 250

## O=C(O)[C@H]1O[C@@H](Oc2cc3oc(-c4ccccc4)cc(=O)c3c(O)c2O)[C@H](O)[C@@H](O)[C@@H]1O [baicalin]
COX-1 [5]
  IC50 for COX-1: 0.44 μg/mL/unit of enzyme
COX-2
  IC50 for COX-2: 0.28 μg/mL/unit
COX-2; COX-1 vs COX-2 IC50 profile
  selectivity against COX-2: twice

## catechin
[6]
  Oxygen Radical Absorption Capacity (ORAC): 20,000
